Data from patent publication EP2022796A1, “Amorphous ciclesonide” (Nycomed GmbH, priority 2007, dated 2009).
In brackets after ≈: the same amount, converted by molar mass.

Assays:
Type in all cases: physicochemical
[1] = Stability under elevated pressure (recrystallization); details: pressure of up to 2.500 for 5 min
Excerpt: Such a stability against pressure is particularly desirable when a pharmaceutical agent is used for preparation of solid pharmaceutical compositions such as tablets or granules.

[2] = Hygroscopicity
[3] = Dissolution experiments in water (dissolution kinetics); details: 37°C
Experimental: For each timepoint (5 min, 10 min, 20 min, 35 min, 60 min and 1440 min) of the dissolution experiment, three samples each of X-ray amorphous and crystalline ciclesonide were prepared by weighing a defined amount of in each case about 15 mg into a 250 ml conical wide-necked Erlenmeyer flask and stirring (850 rpm, glass coated magnetic stir bar, having a length of 2.4 cm and a diameter of 0.59 cm) the samples at 37°C in 100 ml water (Millipore quality, ELIX 3, Gradient A 10, pH 5.92 - 6.00). The moment of the addition of water was defined as to. The tempering of the samples was performed using an air bath. After the desired stirring time, the complete samples were filtered through a 0.2 µm membrane filter (Schleicher & Schuell, RC 0.2 µm Spartan 30/A) and concentrated on a Sep-Pak cartridge (Waters Sep-Pak cartridge C18, WAT051910). The cartridge was then eluted with ethanol (gradient grade, Merck). The ciclesonide in the ethanol solution was then quantified by HPLC (LaChrom®-HPLC System Series 7000, column: Zorbax SB phenyl, eluent: water/ethanol 38 % : 62 % (v/v) isocratic, column temperature: 60°C, injection volume: 50 µL, UV-detection at 243 nm) against an external standard.

[4] = Saturation solubility experiments in water; details: 37°C, 30 min ultrasonic treatment then stirred 24 hours; for saturation solubility: 1440 min
Experimental: Defined amounts of in each case about 14 to 25 mg of X-ray amorphous or crystalline ciclesonide were weighed into a conical Erlenmeyer flask equipped with a rubber stopper (n = 3). 100 ml of water (Millipore quality, ELIX 3, Gradient A 10, pH 5.92 - 6.00) were added and 30 minutes of ultrasonic treatment was applied to the samples. Afterwards the samples were stirred in the dark for 24 hours at 37°C in a water bath. After the desired stirring time, each sample was filtered through a 0.2 µm membrane filter (Schleicher & Schuell, RC 0.2 µm Spartan 30/A) and concentrated on a Sep-Pak cartridge (Waters Sep-Pak cartridge C18, WAT051910). Then the cartridge was eluted with ethanol (gradient grade, Merck). The ciclesonide in the ethanol solution was then quantified by HPLC (LaChrom®-HPLC System Series 7000, column: Zorbax SB phenyl, eluent: water/ethanol 38 % : 62 % (v/v) isocratic, column temperature: 60°C, injection volume: 50 µL, UV-detection at 243 nm) against an external standard.

[5] = listed as crystalline form of ciclesonide

Compound | stability under pressure (signs of recrystallization) [1] | hygroscopicity [2] | concentration of dissolved ingredient within 5 minutes ([3]; 5 minutes) [ng/mL] | concentration of dissolved ingredient after 20 minutes ([3]; 20 minutes) [ng/mL] | concentration of dissolved ingredient relative to crystalline ciclesonide after 1 hour ([3]; after 1 hour, amorphous versus crystalline) | concentration of dissolved ciclesonide after 24 hours [3] [ng/mL] | saturation solubility [4] [µg/mL] | solubility at 1 h ([3]; after 1 hour) [µg/mL] | concentration of dissolved ciclesonide after 24 hours [3, 5] | solubility at 24 h [4] [µg/mL] | saturation solubility [4, 5]
CC(C)C(=O)OCC(=O)C12OC(C3CCCCC3)OC1CC1C3CCC4=CC(=O)C=CC4(C)C3C(O)CC12C (stereo not drawn) [amorphous ciclesonide, 16,17-[(Cyclohexyl-methylene)bis(oxy)]-11-hydroxy-21-(2-methyl-1-oxopropoxy)-pregna-1,4-diene-3,20-dione[11β,16α]] | did not show any signs of recrystallization | not hygroscopic | 290 | 340 | about sevenfold higher | 105 | 0.0916 ± 0.0052 |  |  |  | 
CC(C)C(=O)OCC(=O)C12OC(C3CCCCC3)OC1CC1C3CCC4=CC(=O)C=CC4(C)C3C(O)CC12C (stereo not drawn) [crystalline ciclesonide, 16,17-[(Cyclohexyl-methylene)bis(oxy)]-11-hydroxy-21-(2-methyl-1-oxopropoxy)-pregna-1,4-diene-3,20-dione[11β,16α], reference compound] |  |  |  |  |  | 64 | 0.0901 ± 0.0022 | ~0.05 (≈ 0.0925 µM) | about 64 µg/l | 0.091 (≈ 0.168 µM) | about 91 µg/l
